Laboratory results reported in patent US20220062240A1, “METHODS OF TREATING CANCER USING A CLK INHIBITOR” (BioSplice Therapeutics, Inc., priority 2018, published 2022).
Where two headings read alike, the source gives them in different places.

What was measured:
CLK2 = target: T1, CLK2 (Homo sapiens, UniProt P49760); test: CLK2 kinase activity assay (Z-lyte, Ser/Thr 6 peptide); format: biochemical
T1 construct: purchased Thermo Fisher (Life Technologies), Z'-LYTE Kinase Assay Kits
Procedure: All reactions were performed in duplicate.

BT-549 = test: CellTiter-Glo Viability Assay, breast cancer; format: cell-based; details: Homo sapiens, BT-549, 96 h
CAMA1 = test: CellTiter-Glo Viability Assay, breast cancer; format: cell-based; details: Homo sapiens, CAMA-1, 96 h
DU4475 = test: CellTiter-Glo Viability Assay, breast cancer; format: cell-based; details: Homo sapiens, DU-4475, 96 h
HCC1599 = test: CellTiter-Glo Viability Assay, breast cancer; format: cell-based; details: Homo sapiens, HCC1599, 96 h
MCF7 = test: CellTiter-Glo Viability Assay, breast cancer; format: cell-based; details: Homo sapiens, MCF7, 96 h
MDA-MB-231-Luc = test: CellTiter-Glo Viability Assay, breast cancer; format: cell-based; details: Homo sapiens, 96 h
T47D = test: CellTiter-Glo Viability Assay, breast cancer; format: cell-based; details: Homo sapiens, 96 h
ZR-75-1 = test: CellTiter-Glo Viability Assay, breast cancer; format: cell-based; details: Homo sapiens, ZR-75-1, 96 h
all 50 cell lines = test: CellTiter-Glo Viability Assay, average across all cell lines; format: cell-based; details: Homo sapiens, read-out: average EC50 for inhibition of cancer cell proliferation
Method in brief: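 Cells were plated at 300-3,000 per well in their own media, then treated with compound in duplicate, with DMSO wells as controls. After four days at 37° C and 5% CO2, CellTiter-Glo was added, and luminescence was read. EC50s were fitted.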

[1] = system: colorectal cancer (6 cell lines); test: CellTiter-Glo Viability Assay, colorectal cancer; format: cell-based; details: Homo sapiens
[2] = system: haematopoietic & lymphoid tumors (13 cell lines); test: CellTiter-Glo Viability Assay, haematopoietic & lymphoid tumors; format: cell-based; details: Homo sapiens
[3] = system: liver cancer (3 cell lines); test: CellTiter-Glo Viability Assay, liver cancer; format: cell-based; details: Homo sapiens
[4] = system: lung cancer (4 cell lines); test: CellTiter-Glo Viability Assay, lung cancer; format: cell-based; details: Homo sapiens
[5] = system: ovarian cancer (4 cell lines); test: CellTiter-Glo Viability Assay, ovarian cancer; format: cell-based; details: Homo sapiens
[6] = system: pancreatic cancer (8 cell lines); test: CellTiter-Glo Viability Assay, pancreatic cancer; format: cell-based; details: Homo sapiens
[7] = system: prostate cancer (5 cell lines); test: CellTiter-Glo Viability Assay, prostate cancer; format: cell-based; details: Homo sapiens
CLK3 = CLK3 (Homo sapiens, UniProt P49761); test: CLK3 kinase activity assay (Z-lyte, Ser/Thr 18 peptide)
Chain of CLK3 (P49761 whole entry): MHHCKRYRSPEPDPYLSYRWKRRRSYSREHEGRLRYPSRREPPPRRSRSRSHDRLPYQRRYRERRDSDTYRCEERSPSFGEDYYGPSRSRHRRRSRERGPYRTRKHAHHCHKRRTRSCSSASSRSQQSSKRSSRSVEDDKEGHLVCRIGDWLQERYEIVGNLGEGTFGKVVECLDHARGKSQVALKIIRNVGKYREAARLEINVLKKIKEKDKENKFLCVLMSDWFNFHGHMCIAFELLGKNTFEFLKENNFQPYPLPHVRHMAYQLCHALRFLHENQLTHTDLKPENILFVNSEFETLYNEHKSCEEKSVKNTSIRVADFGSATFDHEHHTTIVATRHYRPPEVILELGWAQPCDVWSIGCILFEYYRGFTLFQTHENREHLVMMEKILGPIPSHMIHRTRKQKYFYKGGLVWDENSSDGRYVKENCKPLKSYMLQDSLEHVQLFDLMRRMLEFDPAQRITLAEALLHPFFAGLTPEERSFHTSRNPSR

T1 sequence (P49760 whole entry): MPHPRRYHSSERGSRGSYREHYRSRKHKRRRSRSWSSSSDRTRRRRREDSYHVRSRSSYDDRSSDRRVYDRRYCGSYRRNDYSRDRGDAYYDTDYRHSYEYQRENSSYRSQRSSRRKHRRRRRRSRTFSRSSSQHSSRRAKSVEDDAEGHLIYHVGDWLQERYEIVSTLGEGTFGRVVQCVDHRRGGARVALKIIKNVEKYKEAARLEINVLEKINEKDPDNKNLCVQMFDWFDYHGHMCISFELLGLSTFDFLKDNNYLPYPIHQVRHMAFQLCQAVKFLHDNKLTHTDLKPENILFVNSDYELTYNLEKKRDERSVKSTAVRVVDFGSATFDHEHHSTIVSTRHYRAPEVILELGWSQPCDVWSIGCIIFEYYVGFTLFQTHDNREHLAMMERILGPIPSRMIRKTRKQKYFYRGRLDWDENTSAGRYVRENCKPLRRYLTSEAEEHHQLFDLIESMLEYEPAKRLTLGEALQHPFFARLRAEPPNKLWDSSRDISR

CN1CCC(N(C)c2cc(C(=O)Nc3cc4cc(-c5cnn(C)c5)ccc4cn3)ccn2)CC1 [Compound 72]
EC50 (CLK2): 1.3 nM | EC50 (BT-549): 186 nM | EC50 (CAMA1): 294 nM | EC50 (DU4475): 121 nM | EC50 (HCC1599): 147 nM | EC50 (MCF7): 670 nM | EC50 (MDA-MB-231-Luc): 230 nM | EC50 (T47D): 506 nM | EC50 (ZR-75-1): 284 nM | EC50 (all 50 cell lines): 206 nM | EC50 ([1]; DLD-1, read-out: Colorectal cancer, EC50 (μM) DLD-1): 0.157 µM | EC50 ([1]; HCT-116, read-out: Colorectal cancer, EC50 (μM) HCT116): 0.103 µM | EC50 ([1]; HT-29, read-out: Colorectal cancer, EC50 (μM) HT29): 0.257 µM | EC50 ([1]; SW48, read-out: Colorectal cancer, EC50 (μM) SW48): 0.057 µM | EC50 ([1]; SW480, read-out: Colorectal cancer, EC50 (μM) SW480): 0.129 µM | EC50 ([1]; SW-620, read-out: Colorectal cancer, EC50 (μM) SW620): 0.072 µM | EC50 ([2]; DND41, read-out: Haematopoietic & Lymphoid tumors, EC50 (μM) DND-41): 0.167 µM | EC50 ([2]; HL-60, read-out: Haematopoietic & Lymphoid tumors, EC50 (μM) HL-60): 0.453 µM | EC50 ([2]; JM1, read-out: Haematopoietic & Lymphoid tumors, EC50 (μM) JM1): 0.047 µM | EC50 ([2]; JeKo-1, read-out: Haematopoietic & Lymphoid tumors, EC50 (μM) JeKo-1): 0.054 µM | EC50 ([2]; Jurkat, read-out: Haematopoietic & Lymphoid tumors, EC50 (μM) JURKAT, Clone E6-1): 0.337 µM | EC50 ([2]; Kasumi 1, read-out: Haematopoietic & Lymphoid tumors, EC50 (μM) KASUMI-1): 0.13 µM | EC50 ([2]; MOLT-4, read-out: Haematopoietic & Lymphoid tumors, EC50 (μM) MOLT-4): 0.189 µM | EC50 ([2]; MV4-11, read-out: Haematopoietic & Lymphoid tumors, EC50 (μM) MV-4-11): 0.049 µM | EC50 ([2]; Rec1, read-out: Haematopoietic & Lymphoid tumors, EC50 (μM) REC-1): 0.049 µM | EC50 ([2]; SU-DHL-4, read-out: Haematopoietic & Lymphoid tumors, EC50 (μM) SUDHL4): 0.229 µM | EC50 ([2]; TF-1, read-out: Haematopoietic & Lymphoid tumors, EC50 (μM) TF-1): 0.314 µM | EC50 ([2]; Toledo, read-out: Haematopoietic & Lymphoid tumors, EC50 (μM) TOLEDO): 0.057 µM | EC50 ([2]; read-out: Haematopoietic & Lymphoid tumors, EC50 (μM) Loucy): 0.139 µM | EC50 ([3]; HepG2, read-out: Liver cancer, EC50 HEPG2): 136 nM | EC50 ([3]; PLC-PRF-5, read-out: Liver cancer, EC50 PLC/PRF/5): 386 nM | EC50 ([3]; SNU-398, read-out: Liver cancer, EC50 SNU398): 51 nM | EC50 ([4]; A-427, read-out: Lung cancer, EC50 (μM) A427): 0.136 µM | EC50 ([4]; HCC78, read-out: Lung cancer, EC50 (μM) HCC-78): 0.211 µM | EC50 ([4]; NCI-H460, read-out: Lung cancer, EC50 (μM) NCI-H460): 0.207 µM | EC50 ([4]; NCI-H522, read-out: Lung cancer, EC50 (μM) NCI-H522): 0.119 µM | EC50 ([5]; OV-90, read-out: Ovarian cancer, EC50 (μM) OV-90): 0.317 µM | EC50 ([5]; OVCAR-3, read-out: Ovarian cancer, EC50 (μM) OVCAR-3): 0.095 µM | EC50 ([5]; PA-1, read-out: Ovarian cancer, EC50 (μM) PA1): 0.154 µM | EC50 ([5]; TOV112D, read-out: Ovarian cancer, EC50 (μM) TOV-112D): 0.106 µM | EC50 ([6]; BXPC-3, read-out: Pancreatic cancer, EC50 BxPC3): 310 nM | EC50 ([6]; CAPAN-1, read-out: Pancreatic cancer, EC50 Capan1): 215 nM | EC50 ([6]; Capan-2, read-out: Pancreatic cancer, EC50 Capan2): 409 nM | EC50 ([6]; MIA PaCa-2, read-out: Pancreatic cancer, EC50 MIA PaCa-2): 88 nM | EC50 ([6]; PANC-1, read-out: Pancreatic cancer, EC50 PANC-1): 276 nM | EC50 ([6]; Panc 05.04, read-out: Pancreatic cancer, EC50 PANC 05.04): 226 nM | EC50 ([6]; read-out: Pancreatic cancer, EC50 UPAFII): 125 nM | EC50 ([7]; 22Rv1, read-out: Prostate cancer EC50 22Rv1): 142 nM | EC50 ([7]; DU-145, read-out: Prostate cancer EC50 Du-145): 232 nM | EC50 ([7]; LNCaP-Clone-FGC, read-out: Prostate cancer EC50 LNCap clone FGC): 257 nM | EC50 ([7]; PC-3, read-out: Prostate cancer EC50 PC3): 174 nM | EC50 ([7]; VCaP, read-out: Prostate cancer EC50 VCaP (Sigma)): 509 nM | EC50 (CLK3): 19.9 nM
